We go through four molecules from patent publication US6492356B1, “Acylguanidine derivatives as inhibitors of bone resorption and as vitronectin receptor antagonists” (Aventis Pharma Deutschland GmbH, priority 1997, dated 2002).

For this test, the target named is T1, vitronectin receptor αvβ3 (Homo sapiens, UniProt P05106+P06756).
T1 construct: expressed in transfected cells
T1 sequence (P06756 31-889 limits assumed): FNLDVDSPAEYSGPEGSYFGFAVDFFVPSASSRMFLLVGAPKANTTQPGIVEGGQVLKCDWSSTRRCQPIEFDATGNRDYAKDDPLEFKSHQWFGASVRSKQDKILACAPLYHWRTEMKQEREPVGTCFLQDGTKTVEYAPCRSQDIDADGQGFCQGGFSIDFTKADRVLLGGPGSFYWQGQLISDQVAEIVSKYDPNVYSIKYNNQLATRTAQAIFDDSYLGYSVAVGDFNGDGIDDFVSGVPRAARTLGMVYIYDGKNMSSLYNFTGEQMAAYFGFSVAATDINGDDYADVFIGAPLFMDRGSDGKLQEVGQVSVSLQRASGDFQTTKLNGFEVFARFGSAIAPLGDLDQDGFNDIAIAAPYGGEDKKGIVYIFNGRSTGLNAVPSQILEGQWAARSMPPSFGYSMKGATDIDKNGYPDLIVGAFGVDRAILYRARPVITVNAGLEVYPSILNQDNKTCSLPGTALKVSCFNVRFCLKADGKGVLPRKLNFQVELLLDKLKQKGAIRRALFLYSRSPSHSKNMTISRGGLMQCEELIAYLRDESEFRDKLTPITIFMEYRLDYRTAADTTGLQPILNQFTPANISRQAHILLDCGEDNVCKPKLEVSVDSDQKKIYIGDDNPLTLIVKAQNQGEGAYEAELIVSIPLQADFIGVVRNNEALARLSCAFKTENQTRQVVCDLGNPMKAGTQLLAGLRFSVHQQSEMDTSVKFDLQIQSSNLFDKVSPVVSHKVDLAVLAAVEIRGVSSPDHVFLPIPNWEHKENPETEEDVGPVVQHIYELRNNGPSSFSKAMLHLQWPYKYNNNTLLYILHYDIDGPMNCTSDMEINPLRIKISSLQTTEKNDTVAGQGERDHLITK
T1 sequence (P06756 891-1048 limits assumed): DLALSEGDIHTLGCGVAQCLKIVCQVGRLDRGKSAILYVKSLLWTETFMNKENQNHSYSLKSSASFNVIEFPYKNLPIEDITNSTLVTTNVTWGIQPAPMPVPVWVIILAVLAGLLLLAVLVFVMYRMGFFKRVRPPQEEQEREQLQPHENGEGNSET
T1 sequence (P05106 27-788): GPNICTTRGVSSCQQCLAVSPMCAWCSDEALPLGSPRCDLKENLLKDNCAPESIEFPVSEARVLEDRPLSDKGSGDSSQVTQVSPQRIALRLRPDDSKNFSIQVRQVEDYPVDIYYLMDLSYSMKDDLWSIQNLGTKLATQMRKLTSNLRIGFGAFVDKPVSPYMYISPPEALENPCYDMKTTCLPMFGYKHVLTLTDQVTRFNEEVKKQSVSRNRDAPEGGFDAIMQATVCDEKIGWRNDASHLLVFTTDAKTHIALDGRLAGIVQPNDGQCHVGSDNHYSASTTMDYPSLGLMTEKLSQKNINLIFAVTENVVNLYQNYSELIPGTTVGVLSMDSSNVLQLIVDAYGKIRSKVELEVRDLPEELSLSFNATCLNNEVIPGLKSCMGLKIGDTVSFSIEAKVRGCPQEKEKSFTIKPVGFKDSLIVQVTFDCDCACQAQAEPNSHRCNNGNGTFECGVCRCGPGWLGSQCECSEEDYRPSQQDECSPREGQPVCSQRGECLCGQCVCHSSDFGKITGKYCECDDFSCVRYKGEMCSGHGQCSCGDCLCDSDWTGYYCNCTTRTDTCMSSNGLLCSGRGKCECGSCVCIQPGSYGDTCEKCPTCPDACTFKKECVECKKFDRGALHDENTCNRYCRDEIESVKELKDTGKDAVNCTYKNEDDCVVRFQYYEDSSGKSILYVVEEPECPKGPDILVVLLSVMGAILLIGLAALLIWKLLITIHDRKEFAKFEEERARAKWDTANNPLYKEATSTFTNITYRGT
Briefly: Inhibition of binding of 293 cells to human vitronectin (Vn/293 cell test). It counts as cell-based. As to conditions: 293 cells cotransfected with αv and β3 subunits; plate coated with human vitronectin; 90 min at 37° C. The text has this:
Test for the measurement of the inhibition of binding of 293 cells to human vitronectin (Vn/293 cell test)
1. Purification of Human Vitronectin
Human vitronectin is isolated from human plasma and purified by affinity chromatography according to the method of Yatohyo et al., Cell Structure and Function, 1988, 23, 281-292.
293 cells, a human embryonic kidney cell line, which are cotransfected with DNA sequences for the αv and β3 subunits of the vitronectin receptor αvβ3 , are selected for a high rate of expression (>500,000 αvβ3 receptors/cell) according to the FACS method. The selected cells are cultured and sorted again by means of FACS in order to obtain a stable cell line (15 D) with expression rates >1,000,000 copies of αvβ3 per cell.
A Linbro 96-well tissue culture plate with a flat bottom is coated overnight at 4° C. with human vitronectin (0.01 mg/ml, 0.05 ml/well) in phosphate-buffered saline solution (PBS) and then blocked with 0.5% strength BSA (bovine serum albumin). Solutions of the test substances from 10^−10 mol/l to 2×10^−3 mol/l in glucose-containing DMEM medium are prepared and 0.05 ml/well of the solution are added to the plate in each case. The cells which express high levels of αvβ3 (for example 15 D) are suspended in glucose-containing DMEM medium and the suspension is adjusted to a content of 25,000 cells/0.05 ml of medium. 0.05 ml of this cell suspension is added to each well and the plate is incubated at 37° C. for 90 min. The plate is washed three times with warm PBS in order to remove unbound cells. The bound cells are lyzed in citrate buffer (25 mM, pH 5.0) which contains 0.25% Triton X-100. The hexoseamidase substrate p-nitrophenyl-N-acetyl-β-D-glucosaminide is then added and the plate is incubated at 37° C. for 90 min. The reaction is stopped with a glycine (50 mM)/EDTA (5 mM) buffer (pH 10.4) and the absorption of each well is measured at 405-650 nm. The data are analyzed according to standard processes.
In the case of `O=C(CCCOc1ccc(C[C@H](NC(=O)OCc2ccccc2)C(=O)O)cc1)NC1=NCCCN1` [Example 1, (2S)-2-Benzyloxycarbonylamino-3-(4-(3-(1,4,5,6-tetrahydropyrimidin-2-ylcarbamoyl)propyloxy)phenyl)propionic Acid], the IC50 (commonly the concentration that gives 50% inhibition) was found to be 28 nM. This counts as double-digit nanomolar. The figure for `O=C(CCc1ccc(C(=O)NC[C@H](NC(=O)OCc2ccccc2)C(=O)O)cc1)NC1=NCCCN1` [Example 2, (2S)-2-Benzyloxycarbonylamino-3-(4-(2-(1,4,5,6-tetrahydropyrimidin-2-ylcarbamoyl)ethyl)benzoylamino)propionic Acid] is 17 nM.

For `O=C(COc1ccc(C(=O)NC[C@H](NC(=O)OCc2ccccc2)C(=O)O)cc1)NC1=NCCCN1` [Example 3, (2S )-2-Benzyloxycarbonylamino-3-(4-((1,4,5,6-tetrahydropyrimidin-2-ylcarbamoyl)methyloxy)benzoylamino)propionic Acid], the IC50 was determined as 1350 nM.

Take `O=C(CCCOc1ccc(C[C@H](NC(=O)OCc2ccccc2)C(=O)O)cc1)NC1=NCCN1` [Example 6, (2S)-2-Benzyloxycarbonylamino-3-(4-(3-(4,5-dihydro-1H-imidazol-2-ylcarbamoyl)propyloxy)phenyl)propionic Acid]: the IC50 stood at 32 nM. This IC50 is about 42-fold lower than that of the molecule before.
